According to ChEMBL document CHEMBL5724914, “Linking interpersonal differences in gut microbiota composition and drug biotransformation activity” (2024):

Test: (§1) The drug is tested on Z-016 corresponding to mouse gut metagenome with ENA study accession number: PRJEB37062 and ENA sample accession number: ERS12561815 for biotransformation under anaerobic condition. The drug concentrations were measured over 9 timepoints collected between 0 and 24 hours of incubation by liquid-chromatography-coupled mass spectrometry (LC–MS)
Settings: 2 µM
Note: call rule not given here.

Bacterial Biotransformation | Structure (SMILES)
Compound metabolized | CCOC(=O)[C@H](CCc1ccccc1)N[C@H]1CCc2ccccc2N(CC(=O)O)C1=O [BENAZEPRIL]
Compound NOT metabolized | C=CCc1ccccc1OCC(O)CNC(C)C (stereo not given) [ALPRENOLOL]
Compound metabolized | OC(CCN1CCCCC1)(c1ccccc1)C1CCCCC1 (stereo not given) [TRIHEXYPHENIDYL]

Settings: human gut metagenome, 24 h, 2 µM

Bacterial Biotransformation | Structure (SMILES)
Compound metabolized | CCOC(=O)[C@H](CCc1ccccc1)N[C@H]1CCc2ccccc2N(CC(=O)O)C1=O [BENAZEPRIL]
Compound NOT metabolized | C=CCc1ccccc1OCC(O)CNC(C)C (stereo not given) [ALPRENOLOL]
Compound metabolized | OC(CCN1CCCCC1)(c1ccccc1)C1CCCCC1 (stereo not given) [TRIHEXYPHENIDYL]

Settings: human gut metagenome, 24 h, 2 µM
Remark: another data set of the same source

Bacterial Biotransformation | Structure (SMILES)
Compound metabolized | CCOC(=O)[C@H](CCc1ccccc1)N[C@H]1CCc2ccccc2N(CC(=O)O)C1=O [BENAZEPRIL]
Compound metabolized | C=CCc1ccccc1OCC(O)CNC(C)C (stereo not given) [ALPRENOLOL]
Compound metabolized | OC(CCN1CCCCC1)(c1ccccc1)C1CCCCC1 (stereo not given) [TRIHEXYPHENIDYL]

Settings: human gut metagenome, 24 h, 2 µM
Remark: another data set of the same source

Bacterial Biotransformation | Structure (SMILES)
Compound metabolized | CCOC(=O)[C@H](CCc1ccccc1)N[C@H]1CCc2ccccc2N(CC(=O)O)C1=O [BENAZEPRIL]
Compound NOT metabolized | C=CCc1ccccc1OCC(O)CNC(C)C (stereo not given) [ALPRENOLOL]
Compound NOT metabolized | OC(CCN1CCCCC1)(c1ccccc1)C1CCCCC1 (stereo not given) [TRIHEXYPHENIDYL]

Test: as §1, with “Z-019” for “Z-016”, “rat” for “mouse”, “ERS12561818” for “ERS12561815”
Settings: 2 µM

Bacterial Biotransformation | Structure (SMILES)
Compound NOT metabolized | CCOC(=O)[C@H](CCc1ccccc1)N[C@H]1CCc2ccccc2N(CC(=O)O)C1=O [BENAZEPRIL]
Compound NOT metabolized | C=CCc1ccccc1OCC(O)CNC(C)C (stereo not given) [ALPRENOLOL]
Compound NOT metabolized | OC(CCN1CCCCC1)(c1ccccc1)C1CCCCC1 (stereo not given) [TRIHEXYPHENIDYL]

Settings: human gut metagenome, 24 h, 2 µM
Remark: another data set of the same source

Bacterial Biotransformation | Structure (SMILES)
Compound metabolized | CCOC(=O)[C@H](CCc1ccccc1)N[C@H]1CCc2ccccc2N(CC(=O)O)C1=O [BENAZEPRIL]
Compound NOT metabolized | C=CCc1ccccc1OCC(O)CNC(C)C (stereo not given) [ALPRENOLOL]
Compound metabolized | OC(CCN1CCCCC1)(c1ccccc1)C1CCCCC1 (stereo not given) [TRIHEXYPHENIDYL]

Settings: human gut metagenome, 24 h, 2 µM
Remark: another data set of the same source

Bacterial Biotransformation | Structure (SMILES)
Compound metabolized | CCOC(=O)[C@H](CCc1ccccc1)N[C@H]1CCc2ccccc2N(CC(=O)O)C1=O [BENAZEPRIL]
Compound metabolized | C=CCc1ccccc1OCC(O)CNC(C)C (stereo not given) [ALPRENOLOL]
Compound metabolized | OC(CCN1CCCCC1)(c1ccccc1)C1CCCCC1 (stereo not given) [TRIHEXYPHENIDYL]

Test: as §1, with “WLS-086” for “Z-016”, “human” for “mouse”, “ERS12561752” for “ERS12561815”
Settings: 2 µM

Bacterial Biotransformation | Structure (SMILES)
Compound metabolized | CCOC(=O)[C@H](CCc1ccccc1)N[C@H]1CCc2ccccc2N(CC(=O)O)C1=O [BENAZEPRIL]
Compound metabolized | C=CCc1ccccc1OCC(O)CNC(C)C (stereo not given) [ALPRENOLOL]
Compound metabolized | OC(CCN1CCCCC1)(c1ccccc1)C1CCCCC1 (stereo not given) [TRIHEXYPHENIDYL]

Test: as §1, with “Z-023” for “Z-016”, “to” for “to mouse gut”, “ERS12561822” for “ERS12561815”
Settings: 2 µM

Bacterial Biotransformation | Structure (SMILES)
Compound metabolized | CCOC(=O)[C@H](CCc1ccccc1)N[C@H]1CCc2ccccc2N(CC(=O)O)C1=O [BENAZEPRIL]
Compound metabolized | C=CCc1ccccc1OCC(O)CNC(C)C (stereo not given) [ALPRENOLOL]
Compound metabolized | OC(CCN1CCCCC1)(c1ccccc1)C1CCCCC1 (stereo not given) [TRIHEXYPHENIDYL]

Test: as §1, with “WLS-310” for “Z-016”, “human” for “mouse”, “ERS12561785” for “ERS12561815”
Settings: 2 µM

Bacterial Biotransformation | Structure (SMILES)
Compound metabolized | CCOC(=O)[C@H](CCc1ccccc1)N[C@H]1CCc2ccccc2N(CC(=O)O)C1=O [BENAZEPRIL]
Compound NOT metabolized | C=CCc1ccccc1OCC(O)CNC(C)C (stereo not given) [ALPRENOLOL]
Compound metabolized | OC(CCN1CCCCC1)(c1ccccc1)C1CCCCC1 (stereo not given) [TRIHEXYPHENIDYL]

Settings: human gut metagenome, 24 h, 2 µM
Remark: another data set of the same source

Bacterial Biotransformation | Structure (SMILES)
Compound metabolized | CCOC(=O)[C@H](CCc1ccccc1)N[C@H]1CCc2ccccc2N(CC(=O)O)C1=O [BENAZEPRIL]
Compound metabolized | C=CCc1ccccc1OCC(O)CNC(C)C (stereo not given) [ALPRENOLOL]
Compound metabolized | OC(CCN1CCCCC1)(c1ccccc1)C1CCCCC1 (stereo not given) [TRIHEXYPHENIDYL]

Test: as §1, with “Z-030” for “Z-016”, “ERS12561829” for “ERS12561815”
Settings: 2 µM

Bacterial Biotransformation | Structure (SMILES)
Compound metabolized | CCOC(=O)[C@H](CCc1ccccc1)N[C@H]1CCc2ccccc2N(CC(=O)O)C1=O [BENAZEPRIL]
Compound NOT metabolized | C=CCc1ccccc1OCC(O)CNC(C)C (stereo not given) [ALPRENOLOL]
Compound NOT metabolized | OC(CCN1CCCCC1)(c1ccccc1)C1CCCCC1 (stereo not given) [TRIHEXYPHENIDYL]

Settings: human gut metagenome, 24 h, 2 µM
Remark: another data set of the same source

Bacterial Biotransformation | Structure (SMILES)
Compound metabolized | CCOC(=O)[C@H](CCc1ccccc1)N[C@H]1CCc2ccccc2N(CC(=O)O)C1=O [BENAZEPRIL]
Compound NOT metabolized | C=CCc1ccccc1OCC(O)CNC(C)C (stereo not given) [ALPRENOLOL]
Compound metabolized | OC(CCN1CCCCC1)(c1ccccc1)C1CCCCC1 (stereo not given) [TRIHEXYPHENIDYL]

Test: as §1, with “Z-018” for “Z-016”, “pig” for “mouse”, “ERS12561817” for “ERS12561815”
Settings: 2 µM

Bacterial Biotransformation | Structure (SMILES)
Compound metabolized | CCOC(=O)[C@H](CCc1ccccc1)N[C@H]1CCc2ccccc2N(CC(=O)O)C1=O [BENAZEPRIL]
Compound NOT metabolized | C=CCc1ccccc1OCC(O)CNC(C)C (stereo not given) [ALPRENOLOL]
Compound metabolized | OC(CCN1CCCCC1)(c1ccccc1)C1CCCCC1 (stereo not given) [TRIHEXYPHENIDYL]

Settings: human gut metagenome, 24 h, 2 µM
Remark: another data set of the same source

Bacterial Biotransformation | Structure (SMILES)
Compound metabolized | CCOC(=O)[C@H](CCc1ccccc1)N[C@H]1CCc2ccccc2N(CC(=O)O)C1=O [BENAZEPRIL]
Compound NOT metabolized | C=CCc1ccccc1OCC(O)CNC(C)C (stereo not given) [ALPRENOLOL]
Compound NOT metabolized | OC(CCN1CCCCC1)(c1ccccc1)C1CCCCC1 (stereo not given) [TRIHEXYPHENIDYL]

Test: as §1, with “Z-025” for “Z-016”, “rabbit” for “mouse”, “ERS12561824” for “ERS12561815”
Settings: 2 µM

Bacterial Biotransformation | Structure (SMILES)
Compound NOT metabolized | CCOC(=O)[C@H](CCc1ccccc1)N[C@H]1CCc2ccccc2N(CC(=O)O)C1=O [BENAZEPRIL]
Compound metabolized | C=CCc1ccccc1OCC(O)CNC(C)C (stereo not given) [ALPRENOLOL]
Compound NOT metabolized | OC(CCN1CCCCC1)(c1ccccc1)C1CCCCC1 (stereo not given) [TRIHEXYPHENIDYL]

Settings: human gut metagenome, 24 h, 2 µM
Remark: another data set of the same source

Bacterial Biotransformation | Structure (SMILES)
Compound metabolized | CCOC(=O)[C@H](CCc1ccccc1)N[C@H]1CCc2ccccc2N(CC(=O)O)C1=O [BENAZEPRIL]
Compound metabolized | C=CCc1ccccc1OCC(O)CNC(C)C (stereo not given) [ALPRENOLOL]
Compound metabolized | OC(CCN1CCCCC1)(c1ccccc1)C1CCCCC1 (stereo not given) [TRIHEXYPHENIDYL]

Settings: human gut metagenome, 24 h, 2 µM
Remark: another data set of the same source

Bacterial Biotransformation | Structure (SMILES)
Compound metabolized | CCOC(=O)[C@H](CCc1ccccc1)N[C@H]1CCc2ccccc2N(CC(=O)O)C1=O [BENAZEPRIL]
Compound NOT metabolized | C=CCc1ccccc1OCC(O)CNC(C)C (stereo not given) [ALPRENOLOL]
Compound metabolized | OC(CCN1CCCCC1)(c1ccccc1)C1CCCCC1 (stereo not given) [TRIHEXYPHENIDYL]

Test: as §1, with “Z-014” for “Z-016”, “rat” for “mouse”, “ERS12561814” for “ERS12561815”
Settings: 2 µM

Bacterial Biotransformation | Structure (SMILES)
Compound NOT metabolized | CCOC(=O)[C@H](CCc1ccccc1)N[C@H]1CCc2ccccc2N(CC(=O)O)C1=O [BENAZEPRIL]
Compound NOT metabolized | C=CCc1ccccc1OCC(O)CNC(C)C (stereo not given) [ALPRENOLOL]
Compound NOT metabolized | OC(CCN1CCCCC1)(c1ccccc1)C1CCCCC1 (stereo not given) [TRIHEXYPHENIDYL]

Settings: human gut metagenome, 24 h, 2 µM
Remark: another data set of the same source

Bacterial Biotransformation | Structure (SMILES)
Compound metabolized | CCOC(=O)[C@H](CCc1ccccc1)N[C@H]1CCc2ccccc2N(CC(=O)O)C1=O [BENAZEPRIL]
Compound metabolized | C=CCc1ccccc1OCC(O)CNC(C)C (stereo not given) [ALPRENOLOL]
Compound metabolized | OC(CCN1CCCCC1)(c1ccccc1)C1CCCCC1 (stereo not given) [TRIHEXYPHENIDYL]
